Data reported in PubChem BioAssay AID1996.
≈ marks a conversion by molar mass, not a printed value.

Conditions: buffer; pH 7.4; 200.0 µM
In the case of `COc1ccc(O)c(/C=N/c2nc3ccccc3n2C)c1`, the solubility kinetic is reported as 15 µg/mL (≈ 53.3 µM).
For `C=C(c1ccccc1O)n1ccnc1`, the solubility kinetic was > 27.9 µg/mL.
In the case of `COc1ccc(C)cc1NC(=S)NC12CN3CN(CN(C3)C1)C2`, the solubility kinetic is reported as > 50 µg/mL.
For `COc1cc2[nH]c(C(=O)NCC3CCCO3)cc2c(OC)c1OC` (stereo not given), the solubility kinetic was > 50.2 µg/mL.
`COc1cccc(NC(=O)NCCN2CCCCC2)c1` gave a solubility kinetic of 37.8 µg/mL (≈ 136 µM).
In the case of `CC(=O)Cc1nsc(Nc2ccc(F)cc2)n1`, the solubility kinetic is reported as 33.2 µg/mL (≈ 132 µM).
With `COc1ccc(C(=O)CN2CCN(c3cc(C)nc4ccccc34)CC2)cc1` the solubility kinetic was 45.9 µg/mL (≈ 122 µM).
`COc1ccc(Nc2nc(-c3cccnc3)cs2)c(OC)c1` gave a solubility kinetic of 26.3 µg/mL (≈ 83.9 µM).
With `COCCNC(=O)c1ccc2c(c1)ncn2-c1cccc(C)c1` the solubility kinetic was > 46.4 µg/mL.
`O=C(Nc1ccc2c(c1)OCCO2)c1cccnc1Oc1ccccc1` showed a solubility kinetic of 4 µg/mL (≈ 11.5 µM).
In the case of `CCOC(=O)c1cc2c(ccn2C)n1CC(=O)Nc1ccc(F)cc1`, the solubility kinetic is reported as 3.1 µg/mL (≈ 9.03 µM).
With `O=C(NCc1cccnc1)/C(=C/c1ccccc1)NC(=O)c1ccccc1` the solubility kinetic was > 53.6 µg/mL.
`CCOc1ccc(C(C)=O)cc1COC(=O)CNC(=O)C12CC3CC(CC(C3)C1)C2` showed a solubility kinetic of 36.7 µg/mL (≈ 88.8 µM).
Work on `CCOc1ncccc1C(=O)NCCc1c[nH]c2ccccc12` yielded a solubility kinetic of 8.7 µg/mL (≈ 28.1 µM).
In the case of `CC(=O)N1CCN(C(=O)COC(=O)/C=C/c2ccccc2[N+](=O)[O-])CC1`, the solubility kinetic is reported as > 54.2 µg/mL.
In the case of `NS(=O)(=O)c1ccc(N2CCN(S(=O)(=O)Cc3ccccc3)CC2)nc1`, the solubility kinetic is reported as 4.1 µg/mL (≈ 10.3 µM).
In the case of `CC1=N/C(=C\c2ccccc2Cl)C(=O)O1`, the solubility kinetic is reported as 27.7 µg/mL (≈ 125 µM).
For `COc1ccc(S(=O)(=O)NCC(=O)NCCc2ccc(OC)c(OC)c2)cc1`, the solubility kinetic was > 61.3 µg/mL.
For `COCCCN(C(=S)Nc1ccc(OC)cc1)C(C)c1ccncc1` (stereo not given), the solubility kinetic was > 53.9 µg/mL.
For `CCS(=O)(=O)N1CCN=C1SCc1ccccc1`, the solubility kinetic was > 42.7 µg/mL.
`COC(=O)c1ccc(NC(=O)C(=O)c2cccn2C)cc1` gave a solubility kinetic of 3.2 µg/mL (≈ 11.2 µM).
In the case of `CCc1ccc(N2CC(C(=O)OC)CC2=O)cc1` (stereo not given), the solubility kinetic is reported as > 37.1 µg/mL.
For `CCCC(=O)Nc1ccc2oc(=O)ccc2c1`, the solubility kinetic was > 34.7 µg/mL.
For `COC(=O)C1CCN(S(=O)(=O)Cc2ccccc2Cl)CC1`, the solubility kinetic was > 49.8 µg/mL.
In the case of `O=C(NCCc1csc(-c2cccnc2)n1)c1c(F)cccc1F`, the solubility kinetic is reported as 48.9 µg/mL (≈ 142 µM).
With `O=C(N/N=C/c1cccnc1)c1ccccc1Cl` the solubility kinetic was > 39 µg/mL.
For `CCC1CCCCN1Cc1nc(Cc2ccccc2Cl)no1` (stereo not given), the solubility kinetic was 16.3 µg/mL (≈ 51 µM).
Compound `c1ccc(NC2=NCCS2)cc1` has a solubility kinetic of 23.5 µg/mL (≈ 132 µM).
`CC(C)(C)S(=O)(=O)c1cnc(N2CCCC2)nc1N` gave a solubility kinetic of 37.9 µg/mL (≈ 133 µM).
`O=C(Nc1nc(-c2ccccc2)cs1)c1ccccc1F` gave a solubility kinetic of 0.4 µg/mL (≈ 1.34 µM).
With `CN(C)C(=O)C(OC(=O)c1ccc2ccccc2n1)c1ccccc1` (stereo not given) the solubility kinetic was > 50.2 µg/mL.
In the case of `Cc1ccc(C)c(OCCNc2ccc([N+](=O)[O-])cn2)c1`, the solubility kinetic is reported as 0.4 µg/mL (≈ 1.39 µM).
For `Nc1ccc(Oc2c(Cl)cccc2Cl)nc1`, the solubility kinetic was > 38.3 µg/mL.
In the case of `Cc1ccccc1NC1=NCC(c2ccc([N+](=O)[O-])cc2)S1` (stereo not given), the solubility kinetic is reported as 10.5 µg/mL (≈ 33.5 µM).
With `O=C(NCC(=O)N1CCOCC1)c1ccc(Cl)cc1` the solubility kinetic was > 42.4 µg/mL.
With `O=C(Nc1ccc(Oc2cccnc2)nc1)c1ccc(C(F)(F)F)cc1` the solubility kinetic was 10.3 µg/mL (≈ 28.7 µM).
With `COCCn1c(N)c(N(Cc2ccccc2)C(=O)c2cc(=O)[nH]c3ccccc23)c(=O)[nH]c1=O` the solubility kinetic was > 69.2 µg/mL.
For `COc1ccc(CCC(=O)Nc2ccc3c(c2)OCO3)cc1`, the solubility kinetic was 7.3 µg/mL (≈ 24.4 µM).
For `O=C(NCC(O)COc1ccc([N+](=O)[O-])cc1)c1ccccc1` (stereo not given), the solubility kinetic was 24.8 µg/mL (≈ 78.4 µM).
In the case of `CNS(=O)(=O)c1ccc(NC(=O)Nc2ccc3c(c2)OCO3)cc1`, the solubility kinetic is reported as 15.6 µg/mL (≈ 44.7 µM).
With `COc1ccccc1C(=O)N/C(=N/c1nc(C)cc(C)n1)Nc1ccccc1` the solubility kinetic was 1.1 µg/mL (≈ 2.93 µM).
In the case of `COCc1cc(=O)[nH]c(SCC(=O)c2ccccc2)n1`, the solubility kinetic is reported as > 43.6 µg/mL.
With `NC(=O)CSc1ccc(S(=O)(=O)N2CCOCC2)cn1` the solubility kinetic was > 47.6 µg/mL.
Work on `C/C=C/C(=O)OCC(=O)Nc1cccc(Br)c1` yielded a solubility kinetic of 29 µg/mL (≈ 97.3 µM).
For `O=C(COC(=O)c1ccco1)NCc1ccc2c(c1)OCO2`, the solubility kinetic was > 45.5 µg/mL.
Compound `O=C(OCc1nc(-c2ccccc2Cl)no1)c1ccco1` has a solubility kinetic of 19 µg/mL (≈ 62.4 µM).
For `CC(NCC(=O)NCC(=O)Nc1ccc(F)cc1)c1cccc(C(F)(F)F)c1` (stereo not given), the solubility kinetic was > 59.6 µg/mL.
In the case of `CSC1=NCCN1C(=O)Cc1ccc(-c2ccccc2)cc1`, the solubility kinetic is reported as 4.1 µg/mL (≈ 13.2 µM).
For `COc1ccc(C(=O)N/N=C/c2cccnc2)cc1`, the solubility kinetic was > 38.3 µg/mL.
With `O=C(Cc1ccccc1)N1CCN(c2ccc([N+](=O)[O-])cc2)CC1` the solubility kinetic was 3.7 µg/mL (≈ 11.4 µM).
With `CC(CCc1ccccc1)NC(=O)CN1CCc2ccccc2C1` (stereo not given) the solubility kinetic was 47.3 µg/mL (≈ 147 µM).
`Cc1cc(C)nc(SCc2ccc(Cl)cc2)n1` gave a solubility kinetic of 0.6 µg/mL (≈ 2.27 µM).
For `CC(C)(C)c1ccc(C(=O)NCCOc2ccccc2)cc1`, the solubility kinetic was 2.2 µg/mL (≈ 7.4 µM).
For `COc1ccc(Cc2n[nH]c(=S)n2N)cc1OC`, the solubility kinetic was > 39.9 µg/mL.
In the case of `COc1ccc(C(=O)NC(=S)N(C)C2CCCCC2)cc1Br`, the solubility kinetic is reported as 0.7 µg/mL (≈ 1.82 µM).
Work on `O=C(Cc1ccc(S(=O)(=O)N2CCCC2)s1)Nc1cccc([N+](=O)[O-])c1` yielded a solubility kinetic of 20.7 µg/mL (≈ 52.3 µM).
With `COc1cccc(CNCC(=O)NC(=O)NC2CCCC2)c1.O=C(O)C(=O)O` the solubility kinetic was > 59.3 µg/mL.
In the case of `COc1cc([N+](=O)[O-])cc2sc(NC(=O)C(C)(C)C)nc12`, the solubility kinetic is reported as < 0.2 µg/mL.
Compound `NC(=O)NC(=O)COC(=O)CC12CC3CC(CC(C3)C1)C2` has a solubility kinetic of 29.2 µg/mL (≈ 99.2 µM).
Work on `CCOC(=O)C1=C(C)OC(N)=C(C#N)C1c1ccc(C)s1` (stereo not given) yielded a solubility kinetic of 13.2 µg/mL (≈ 43.4 µM).
In the case of `O=C(NNC1CC(=O)N(c2ccc(Cl)cc2)C1=O)c1ccco1` (stereo not given), the solubility kinetic is reported as > 50.1 µg/mL.
For `CC1CCc2c(sc(NC(=O)c3cccn3C)c2C(N)=O)C1` (stereo not given), the solubility kinetic was 2.9 µg/mL (≈ 9.14 µM).
Compound `Cc1ncc([N+](=O)[O-])n1CC(=O)Nc1cccc(C(F)(F)F)c1` has a solubility kinetic of 6 µg/mL (≈ 18.3 µM).
With `CCOC(=O)c1c(C)[nH]c(C(=O)OCc2ccccc2F)c1C` the solubility kinetic was < 0.7 µg/mL.
`CC(C)CCn1cnc2c(oc3nc4c(cc32)CCCC4)c1=O` gave a solubility kinetic of 43 µg/mL (≈ 138 µM).
With `O=C1OCc2ccc(NC(=O)c3sccc3Cl)cc21` the solubility kinetic was < 0.6 µg/mL.
With `CC(C)Cc1ccc(C(C)C(=O)Nc2ccccc2O)cc1` (stereo not given) the solubility kinetic was 1.9 µg/mL (≈ 6.39 µM).
With `Nc1c(N=O)c(=O)[nH]c(=O)n1-c1ccccc1` the solubility kinetic was > 34.8 µg/mL.
`O=[N+]([O-])c1cccnc1NCCc1c[nH]c2ccccc12` gave a solubility kinetic of 0.3 µg/mL (≈ 1.06 µM).
Work on `CCOC(=O)N1CCN(Cc2ccc3ccccc3c2)CC1` yielded a solubility kinetic of 26.9 µg/mL (≈ 90.2 µM).
In the case of `COc1ccc(N2CCN(CC(=O)Nc3ccc(C)cc3)CC2)cc1`, the solubility kinetic is reported as 46.8 µg/mL (≈ 138 µM).
In the case of `O=C(O)c1ccccc1/C=N/NC(=S)NCc1ccccc1`, the solubility kinetic is reported as > 47 µg/mL.
In the case of `CCCCOc1ccc(CSC(=N)N)cc1Cl.Cl`, the solubility kinetic is reported as 40.6 µg/mL.
`CC1Cc2ccccc2N1S(=O)(=O)c1ccc(Cl)nc1` (stereo not given) showed a solubility kinetic of 1.9 µg/mL (≈ 6.15 µM).
With `COC(=O)c1sccc1NC(=O)Nc1ccc(OC)c(OC)c1` the solubility kinetic was > 50.5 µg/mL.
For `COc1ccc(C2(CNC(=O)c3ccc(N)cc3)CCCC2)cc1`, the solubility kinetic was 26.7 µg/mL (≈ 82.3 µM).
Compound `CCN(CC)CC(O)CN1c2ccccc2Sc2ccccc21` (stereo not given) has a solubility kinetic of 44.4 µg/mL (≈ 135 µM).
In the case of `COc1ccc(C(=O)COC(=O)c2cnc(C)cn2)c(OC)c1`, the solubility kinetic is reported as > 47.4 µg/mL.
Compound `CCCCn1c(N)c(N(CCC(C)C)C(=O)COC(=O)c2ccc([N+](=O)[O-])s2)c(=O)[nH]c1=O` has a solubility kinetic of 25.1 µg/mL (≈ 52.1 µM).
With `O=C(Cn1c(CO)nc2ccccc21)Nc1ccc2c(c1)OCCCO2` the solubility kinetic was > 53 µg/mL.
For `CCCc1cc(C(=O)OC)c(NC(=O)CCCC(=O)O)s1`, the solubility kinetic was > 47 µg/mL.
`Cc1noc(C)c1COc1ccc2ccc(=O)oc2c1` gave a solubility kinetic of 11.5 µg/mL (≈ 42.4 µM).
For `O=C(O)c1cccc(Nc2ccncc2[N+](=O)[O-])c1`, the solubility kinetic was > 38.9 µg/mL.
`CCC(C)c1ccc(C(CC)NC(=O)C2CCCO2)cc1` (stereo not given) showed a solubility kinetic of 34.5 µg/mL (≈ 119 µM).
With `COc1ccc(-c2noc(CCC(=O)NCC3CCCO3)n2)cc1` (stereo not given) the solubility kinetic was > 49.7 µg/mL.
